In ChEMBL document CHEMBL3885881, “DrugMatrix”:

Species: Rattus norvegicus
Test: DrugMatrix - Regimen: Daily Repeat
Type: toxicity, organism-based, Sprague-Dawley
Parameters: regimen Daily Repeat, gender Male, age 6-8 weeks
Settings: in vivo, po, 1 mg/kg, route oral GAVAGE, dose level Low, vehicle 100 % WATER; for ABSOLUTE BASOPHIL / ABSOLUTE EOSINOPHIL / ABSOLUTE LYMPHOCYTE / ABSOLUTE MONOCYTE / ABSOLUTE SEGMENTED NEUTROPHIL / BASOPHIL / EOSINOPHIL / ERYTHROCYTE COUNT / HEMATOCRIT / HEMOGLOBIN / LEUKOCYTE COUNT / LYMPHOCYTE / MEAN CORPUSCULAR HEMOGLOBIN / MEAN CORPUSCULAR HEMOGLOBIN CONCENTRATION / MEAN CORPUSCULAR VOLUME / MONOCYTE / NEUTROPHIL / NUCLEATED RED BLOOD CELLS / PLATELET COUNT: tissue Blood; for ALANINE AMINOTRANSFERASE / ALBUMIN / ALKALINE PHOSPHATASE / ASPARTATE AMINOTRANSFERASE / BLOOD UREA NITROGEN / CARBON DIOXIDE / CHLORIDE / CHOLESTEROL / CREATINE PHOSPHOKINASE / CREATININE / GLUCOSE / LACTATE DEHYDROGENASE / LIPASE / PHOSPHORUS / POTASSIUM / SODIUM / TOTAL BILIRUBIN / TOTAL PROTEIN / URIC ACID: tissue Plasma

## Cc1nccn1CC1CCc2c(c3ccccc3n2C)C1=O (stereo unspecified) [ONDANSETRON]
72 h, time 3 day
  ABSOLUTE BASOPHIL: 0 CELLS/uL
  ABSOLUTE EOSINOPHIL: 0 CELLS/uL
  ABSOLUTE LYMPHOCYTE: 12419.33 CELLS/uL
  ABSOLUTE MONOCYTE: 325.33 CELLS/uL
  ABSOLUTE SEGMENTED NEUTROPHIL: 1155.33 CELLS/uL
  BASOPHIL: 0%
  EOSINOPHIL: 0%
  ERYTHROCYTE COUNT: 5.53 x10E6/uL
  HEMATOCRIT: 34.87%
  HEMOGLOBIN: 13.27 G/DL
  LEUKOCYTE COUNT: 13.9 x10E3/uL
  LYMPHOCYTE: 89.33%
  MEAN CORPUSCULAR HEMOGLOBIN: 24 pg
  MEAN CORPUSCULAR HEMOGLOBIN CONCENTRATION: 38.07 G/DL
  MEAN CORPUSCULAR VOLUME: 63.03 fL
  MONOCYTE: 2.33%
  NEUTROPHIL: 8.33%
  NUCLEATED RED BLOOD CELLS: 0 /100WBC
  PLATELET COUNT: 1205.67 x10E3/uL
  ALANINE AMINOTRANSFERASE: 50.33 u/L
  ALBUMIN: 4.1 G/DL
  ALKALINE PHOSPHATASE: 392.33 u/L
  ASPARTATE AMINOTRANSFERASE: 92 u/L
  BLOOD UREA NITROGEN: 15.67 mg/dL
  CARBON DIOXIDE: 24.33 mmol/L
  CHLORIDE: 104 MEQ/L
  CHOLESTEROL: 74.33 mg/dL
  CREATINE PHOSPHOKINASE: 345 u/L
  CREATININE: 0.17 mg/dL
  GLUCOSE: 165.33 mg/dL
  LACTATE DEHYDROGENASE: 421 u/L
  LIPASE: 9.67 u/L
  PHOSPHORUS: 14.47 mg/dL
  POTASSIUM: 6.65 MEQ/L
  SODIUM: 147.47 MEQ/L
  TOTAL BILIRUBIN: 0.17 mg/dL
  TOTAL PROTEIN: 5.77 G/DL
  URIC ACID: 1.8 mg/dL
120 h, time 5 day
  ABSOLUTE BASOPHIL: 0 CELLS/uL
  ABSOLUTE EOSINOPHIL: 0 CELLS/uL
  ABSOLUTE LYMPHOCYTE: 15703.33 CELLS/uL
  ABSOLUTE MONOCYTE: 57.67 CELLS/uL
  ABSOLUTE SEGMENTED NEUTROPHIL: 1439 CELLS/uL
  BASOPHIL: 0%
  EOSINOPHIL: 0%
  ERYTHROCYTE COUNT: 5.66 x10E6/uL
  HEMATOCRIT: 36.67%
  HEMOGLOBIN: 14.17 G/DL
  LEUKOCYTE COUNT: 17.2 x10E3/uL
  LYMPHOCYTE: 91.33%
  MEAN CORPUSCULAR HEMOGLOBIN: 25.07 pg
  MEAN CORPUSCULAR HEMOGLOBIN CONCENTRATION: 38.6 G/DL
  MEAN CORPUSCULAR VOLUME: 64.9 fL
  MONOCYTE: 0.33%
  NEUTROPHIL: 8.33%
  NUCLEATED RED BLOOD CELLS: 0 /100WBC
  PLATELET COUNT: 1456 x10E3/uL
  ALANINE AMINOTRANSFERASE: 55 u/L
  ALBUMIN: 4.43 G/DL
  ALKALINE PHOSPHATASE: 362 u/L
  ASPARTATE AMINOTRANSFERASE: 77.33 u/L
  BLOOD UREA NITROGEN: 17 mg/dL
  CARBON DIOXIDE: 29 mmol/L
  CHLORIDE: 100.33 MEQ/L
  CHOLESTEROL: 72 mg/dL
  CREATINE PHOSPHOKINASE: 162.67 u/L
  CREATININE: 0.18 mg/dL
  GLUCOSE: 160.33 mg/dL
  LACTATE DEHYDROGENASE: 160.67 u/L
  LIPASE: 10.33 u/L
  PHOSPHORUS: 14.4 mg/dL
  POTASSIUM: 6.83 MEQ/L
  SODIUM: 146.07 MEQ/L
  TOTAL BILIRUBIN: 0.2 mg/dL
  TOTAL PROTEIN: 6.17 G/DL
  URIC ACID: 1.7 mg/dL
